Experiment [1] deals with ASC specks. Nature of the experiment: ASC speck formation in LPS-primed THP-1 cells plus nigericin. The conditions noted are these: for ASC speck formation: 1 hr before nigericin. The class given is cell-based, human. The procedure:
(§1) Immunostaining and confocal microscopy: cells grown on coverslips were fixed for 15 min with 4% paraformaldehyde in PBS, permeabilized for 5 min in 0.1% Triton X-100 in PBS and blocked using 5% BSA for 1 hr. Then, cells were stained with the indicated primary antibodies followed by incubation with fluorescent-conjugated secondary antibodies (Jackson ImmunoResearch). Nuclei were counterstained with DAPI (4,6-diamidino-2-phenylindole) (Sigma-Aldrich). Slides were mounted using Aqua-Poly/Mount (Dako). Images were captured using a laser scanning confocal microscope (Olympus Fluoview FV1000 Confocal System) with a 63× water immersion objective and Olympus Fluoview software (Olympus). All confocal images are representative of three independent experiments.
Nigericin activates the assembly of the NLRP3 canonical inflammasome using an adaptor called apoptosis-associated speck-like protein containing a caspase recruitment domain (ASC), which can be visualized in immunofluorescent microscopy as specks. When LPS-primed THP-1 cells were treated with nigericin in the absence of inhibitors, ASC specks were detected in 30% of cells (FIG. 36). As expected, speck formation was not inhibited by z-VAD-fmk, since caspase activation occurs downstream of inflammasome assembly.
(§2) Cell death was determined by CytoTox96 assay. […] Cell death was determined by CytoTox96 assay. […] Shown are immunoblots of whole cell lysates harvested 0.5 hr later. […] Representative images of ASC specks (arrowheads) and mean±s.d. percent of cells with ASC specks analyzed 20 min later (FIG. 47). Whole cell lysates (WCL) and culture supernatants (Sup) were harvested 30 min after adding nigericin and immunoblotted with the indicated antibodies (FIG. 50). Caspase-1 activity was assayed 30 min after adding nigericin using a cell-permeable fluorescence dye FAM-YVAD-FMK (FIG. 52). […] Representative images of ASC specks (arrowheads) and mean±s.d. percent of cells with ASC specks analyzed 20 min later (FIGS. 48 and 49). Whole cell lysates (WCL) and culture supernatants (Sup), harvested 30 min after adding nigericin, were analyzed by immunoblot (FIG. 51). […] The Figures show representative confocal microscopy images and quantification of proportion of cells with GSDMD membrane staining and pyroptotic bubbles. Arrows indicate GSDMD staining of pyroptotic bubbles. […] FIGS. 57 and 58, dose response curve of the effect of Bay 11-7082 on caspase-1 (FIG. 57) and caspase-11 (FIG. 58) activity against a fluorescent peptide substrate. […] (FIG. 60). FIGS. 61 and 62 show dose response curve of the effect of Bay 11-7082 on liposome leakage induced by 0.3 μM human GSDMD-3C (FIG. 61) or mouse GSDMA3-3C (FIG. 62) plus 0.15 μM 3C protease. […] 2-fold dilutions of Bay 11-7082 from 5-40 μM were used. Graphs show the mean±s.d; data are representative of three independent experiments. *P<0.05, **P<0.01.

For experiment [2], the system named is caspase-1. Description: Caspase-1 activity assay in cells (FAM-YVAD-FMK). In kind it is cell-based, human. The conditions noted are these: 30 μM, 30 min after nigericin. The procedure: Caspase-1 activity assay in cells: to measure caspase-1 activation, THP-1 cells were seeded into 96-well plates and differentiated with PMA. After the indicated treatments, cells were incubated with a fluorescent active caspase-1 substrate FAM-YVAD-FMK (Immunochemistry Technologies). Samples were read on a BioTek Synergy 2 plate reader.
as §2

The subject of experiment [3] is caspase-1, GSDMD, and pro-IL-1β. Nature of the experiment: Caspase-1, GSDMD, pro-IL-1β cleavage and IL-1β secretion by immunoblot, THP-1. The class given is cell-based, human. The conditions noted are these: 30 μM; for caspase-1, GSDMD and pro-IL-1β cleavage: 30 min after nigericin. The procedure: Immunoblot analysis: cell extracts were prepared using RIPA buffer (50 mM Tris-HCl pH 7.4, 150 mM NaCl, 1 mM EDTA, 1% Triton X-100, 0.1% SDS, 0.5% deoxycholate) supplemented with a complete protease inhibitor cocktail (Roche) and a PhosSTOP phosphatase inhibitor cocktail (Roche). Samples were subjected to SDS-PAGE and the resolved proteins were then transferred to a PVDF membrane (Millipore). Immunoblots were probed with indicated antibodies and visualized using a SuperSignal West Pico chemiluminescence ECL kit (Pierce).
To assess which steps in NLRP3-mediated inflammation were inhibited post ASC speck formation, LPS-primed THP-1 cells were treated with vehicle or 30 μM z-VAD-fmk, disulfiram or Bay 11-7082 1 hr before adding nigericin, and cleavage and activation of caspase-1, GSDMD, and pro-IL-1β were analysed by immunoblot of whole cell lysates 30 min later (FIG. 50). Secretion of processed IL-1β was also assessed by immunoblot of culture supernatants. […] Because immunoblots are not quantitative, caspase-1 activity 30 min after adding nigericin was also assessed using a fluorescent substrate in intact cells. […] Next, the effect of z-VAD-fmk, disulfiram and Bay 11-7082 on LPS+nigericin-induced GSDMD pore formation was assessed by immunofluorescence microscopy using a monoclonal antibody that was generated that recognizes both uncleaved GSDMD and its pore form (FIGS. 53, 54, and 64-66). In the absence of any inhibitor, the GSDMD antibody stained both the cytosol and the plasma membrane of LPS plus nigericin treated cells, which formed characteristic pyroptotic bubbles (See Reference 10). […] Thus, disulfiram and Bay 11-7082 inhibit multiple steps leading to canonical inflammasome-induced pyroptosis and inflammatory cytokine release, including priming, inflammasome assembly, inflammatory caspase activation, pro-inflammatory cytokine processing and GSDMD pore formation.
as §2
Canonical inflammasome assembly activates caspase-1, which cleaves pro-IL-1β and GSDMD, and the latter is needed to release processed IL-1β and to induce pyroptosis. […]
In general terms: A western blot detects proteins with antibodies after separation by electrophoresis.

Experiment [4] deals with T1, caspase-1 (Homo sapiens, UniProt P29466).
T1 sequence (P29466 120-404): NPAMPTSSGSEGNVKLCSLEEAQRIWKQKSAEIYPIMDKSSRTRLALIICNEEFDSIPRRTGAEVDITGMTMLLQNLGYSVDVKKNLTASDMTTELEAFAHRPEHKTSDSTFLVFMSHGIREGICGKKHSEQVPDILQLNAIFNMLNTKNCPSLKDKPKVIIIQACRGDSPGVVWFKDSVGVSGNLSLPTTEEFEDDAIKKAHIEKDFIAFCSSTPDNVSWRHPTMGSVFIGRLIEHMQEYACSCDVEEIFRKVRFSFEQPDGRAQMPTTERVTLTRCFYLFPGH
Description: Caspase-1 inhibition assay (Ac-YVAD-AMC). In kind it is biochemical. The procedure:
Caspase-1 and caspase-11 inhibition assays: the fluorogenic assay for caspase-1 and caspase-11 activity is based on release of 7-amino-4-methylcoumarin (AMC) from the caspase substrate Ac-YVAD-AMC. Compounds (8 nM-50 μM) were incubated with 0.5 U of caspase-1 or caspase-11 for 30 min in assay buffer (20 mM HEPES, 150 mM NaCl) in 384-well plates (Corning 3820) before addition of Ac-YVAD-AMC (40 μM) to initiate the reactions. Reactions were monitored in a SpectraMax M5 plate reader (Molecular Devices, Sunnyvale, Calif. USA) with excitation/emission wavelengths at 350/460 nm. The fluorescence intensity of each reaction was recorded every 2 min for 2 hrs.
Fluorescence intensity at 460 nm was measured after excitation at 350 nm.

The subject of experiment [5] is GSDMD pore formation. Description: GSDMD membrane staining and pyroptotic bubbles, immunofluorescence. The class given is cell-based, human. The conditions noted are these: 30 μM, 30 min after nigericin. The procedure: as §1
To assess which steps in NLRP3-mediated inflammation were inhibited post ASC speck formation, LPS-primed THP-1 cells were treated with vehicle or 30 μM z-VAD-fmk, disulfiram or Bay 11-7082 1 hr before adding nigericin, and cleavage and activation of caspase-1, GSDMD, and pro-IL-1β were analysed by immunoblot of whole cell lysates 30 min later (FIG. 50). Secretion of processed IL-1β was also assessed by immunoblot of culture supernatants. […] Because immunoblots are not quantitative, caspase-1 activity 30 min after adding nigericin was also assessed using a fluorescent substrate in intact cells. […] Next, the effect of z-VAD-fmk, disulfiram and Bay 11-7082 on LPS+nigericin-induced GSDMD pore formation was assessed by immunofluorescence microscopy using a monoclonal antibody that was generated that recognizes both uncleaved GSDMD and its pore form (FIGS. 53, 54, and 64-66). […]
Cell death was determined by CytoTox96 assay. […] Cell death was determined by CytoTox96 assay. […] Representative images of ASC specks (arrowheads) and mean±s.d. percent of cells with ASC specks analyzed 20 min later (FIG. 47). […] Caspase-1 activity was assayed 30 min after adding nigericin using a cell-permeable fluorescence dye FAM-YVAD-FMK (FIG. 52). […]

“Also recorded” adds a separate entry of the source.

What is called IC50 is the midpoint of a concentration-inhibition curve. High values mean a need for much substance, low ones inhibition by little substance.

Turning to `Cc1ccc(S(=O)(=O)/C=C/C#N)cc1` [Bay 11-7082], the ASC speck formation entry in experiment [1] (30 μM) is “inhibited ASC speck formation, but not completely”. Moreover, in experiment [2], the “caspase-1 activity in intact cells” value is listed as “only partially reduced”. Moreover, in experiment [3], the “processed IL-1β in culture supernatants” value is recorded as “only detected in the culture supernatants in the absence of any inhibitor”; the “caspase-1, GSDMD and pro-IL-1β cleavage” value was “dramatically reduced”. Further, the caspase-1 inhibition entry in experiment [4] is “inhibited”. Besides, in experiment [5], the “GSDMD membrane staining and pyroptotic bubbles” value is on record as “completely blocked”.
In the case of `CCN(CC)C(=S)SSC(=S)N(CC)CC` [C-23, Tetraethylthiuram disulfide], the ASC puncta result in experiment [1] (1 μM with copper gluconate) is given as “reduced ASC puncta”. For the same compound, the “cells with ASC specks” value in experiment [1] (30 μM, 1 hour before nigericin) is “about 20 % of cells”. Also, the ASC speck formation entry in experiment [1] (30 μM) was “inhibited ASC speck formation, but not completely”. In addition, in experiment [2], the “caspase-1 activity in intact cells” value is reported as “only partially reduced”. In experiment [3] (listed as disulfiram), the “caspase-1, GSDMD and pro-IL-1β cleavage” value is reported as “dramatically reduced; also recorded: processing was reduced”; the “processed IL-1β in culture supernatants” value is recorded as “only detected in the culture supernatants in the absence of any inhibitor; also recorded: completely inhibited cytokine release”. For the same compound, the “processing of caspase-1, GSDMD and pro-IL-1β” value in experiment [3] (60 min after nigericin) is “caught up with what was detected in the absence of inhibitors”. The IC50 in experiment [4] was 150 ± 40 nM. Further, in experiment [4] (with Cu(II)), the “effect of Cu(II) on caspase-1 inhibition” value is “did not strongly change”. In addition, in experiment [5], the “GSDMD membrane staining and pyroptotic bubbles” value is given as “completely blocked”.

The values are drawn from patent US20210267996A1, “Compounds for inhibition of inflammation” (Children`s Medical Center Corporation, priority 2018, published 2021).
